Positions count from the first letter of the chain named.
Experiments:
D2LR = D2LR (Homo sapiens, UniProt P14416); experiment: β-arrestin-2 recruitment BRET assay; assay type: cell-based
Protocol: Flp-In-CHO cells were seeded at a density of 2,000,000 cells per 10 cm dish and were transfected the following day using polyethylenimine as a transfection reagent. To assess β-arrestin-2 recruitment to the D2LR, the cells were transfected with 1 μg of Rluc8-tagged D2LR, 4 μg of YFP-β-arrestin-2, and 2 μg of GRK2. Twenty-four hours after transfection, the cells were plated into 96-well CulturPlates (PerkinElmer) and grown overnight. […] The cells were incubated with coelenterazine (Promega) at a final concentration of 5 μM for 5 min followed by stimulation with the agonists for an additional 5 min before the BRET readings were captured.

SNAP-D2SR L76^2.46A [1] = biological target: T1, SNAP-D2SR L76^2.46A (Homo sapiens, UniProt P14416, L76A); experiment: functional cAMP assay, BRET biosensor; assay type: cell-based
T1 sequence (P14416 1-414 isoform P14416-2 L76A): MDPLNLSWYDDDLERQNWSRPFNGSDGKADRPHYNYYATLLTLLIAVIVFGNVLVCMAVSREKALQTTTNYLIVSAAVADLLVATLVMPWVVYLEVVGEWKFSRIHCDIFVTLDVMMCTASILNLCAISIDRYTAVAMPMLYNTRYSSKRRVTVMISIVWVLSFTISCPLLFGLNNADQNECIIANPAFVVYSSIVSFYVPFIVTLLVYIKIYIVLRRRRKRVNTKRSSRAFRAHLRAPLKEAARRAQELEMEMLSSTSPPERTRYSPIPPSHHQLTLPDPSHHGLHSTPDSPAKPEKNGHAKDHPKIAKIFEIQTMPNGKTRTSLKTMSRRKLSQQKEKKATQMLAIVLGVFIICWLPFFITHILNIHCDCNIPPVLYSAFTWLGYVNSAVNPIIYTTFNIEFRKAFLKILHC
Protocol: (§1) Flp-In-CHO cells stably coexpressing the CAMYEL biosensor and DRs were plated into white 96-well CulturPlates (Revvity) and grown overnight. The cells were equilibrated in Hank’s balanced salt solution (HBSS) at 37 °C (or 25 °C when indicated) before starting the experiment. The cells were costimulated with the agonists and 10 μM forskolin for the indicated time frames when the BRET readings were captured. Coelenterazine (Nanolight Technology, AZ) was added at a final concentration of 5 μM at least 3 min prior to measurement. […] Net BRET was determined by subtraction of the vehicle control coadded with 10 μM forskolin.
(§2) Dose–response curves were fitted using the following three-parameter equation: response=bottom+top−bottom/1+10^(logEC50−log[A]) 5 where top and bottom represent the maximal and minimal asymptote of the dose response curve, [A] is the molar concentration of the agonist, and EC50 is the molar concentration of the agonist required to give a response half-way between bottom and top.

SNAP-D2SR I128^3.46A [2] = biological target: T2, SNAP-D2SR I128^3.46A (Homo sapiens, UniProt P14416, I128A); experiment: functional cAMP assay, BRET biosensor; assay type: cell-based
T2 sequence (P14416 1-414 isoform P14416-2 I128A): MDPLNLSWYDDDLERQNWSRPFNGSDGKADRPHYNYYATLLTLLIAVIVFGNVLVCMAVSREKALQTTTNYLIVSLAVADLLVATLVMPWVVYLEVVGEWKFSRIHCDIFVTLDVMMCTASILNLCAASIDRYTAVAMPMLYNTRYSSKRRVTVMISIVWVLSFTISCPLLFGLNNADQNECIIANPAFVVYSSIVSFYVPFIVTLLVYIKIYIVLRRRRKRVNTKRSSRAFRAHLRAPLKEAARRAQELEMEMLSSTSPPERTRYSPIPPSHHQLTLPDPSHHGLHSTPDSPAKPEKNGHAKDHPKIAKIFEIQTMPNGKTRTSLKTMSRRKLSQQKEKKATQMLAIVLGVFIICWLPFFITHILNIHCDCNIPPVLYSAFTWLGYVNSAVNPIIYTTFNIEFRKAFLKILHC
Protocol: as §1, §2

SNAP-D2SR V91^2.61A = SNAP-D2SR V91^2.61A (Homo sapiens, UniProt P14416, V91A); experiment: functional cAMP assay, BRET biosensor; assay type: cell-based
Chain of SNAP-D2SR V91^2.61A (P14416 1-414 isoform P14416-2 V91A): as the sequence (P14416 1-414 isoform P14416-2 L76A) above, with A76L, V91A counted along it
Protocol: (§3) Flp-In-CHO cells stably coexpressing the CAMYEL biosensor and DRs were plated into white 96-well CulturPlates (Revvity) and grown overnight. The cells were equilibrated in Hank’s balanced salt solution (HBSS) at 37 °C (or 25 °C when indicated) before starting the experiment. The cells were costimulated with the agonists and 10 μM forskolin for the indicated time frames when the BRET readings were captured. Coelenterazine (Nanolight Technology, AZ) was added at a final concentration of 5 μM at least 3 min prior to measurement. […] Net BRET was determined by subtraction of the vehicle control coadded with 10 μM forskolin. For phenoxybenzamine alkylation experiments, the cells were treated with 0.1, 0.3, or 1 μM phenoxybenzamine (Sigma-Aldrich) diluted in HBSS and equilibrated at 37 °C for 30 min prior to the commencement of the assay.
as §2

SNAP-D2SR W384^7.40A = SNAP-D2SR W384^7.40A (Homo sapiens, UniProt P14416, W413A); experiment: functional cAMP assay, BRET biosensor; assay type: cell-based
Chain of SNAP-D2SR W384^7.40A (P14416 1-414 isoform P14416-2 W384A): as the sequence (P14416 1-414 isoform P14416-2 L76A) above, with A76L, W384A counted along it
Protocol: as §3, §2

[3] = test system: 6-OHDA contralateral turning model; conditions: with subeffective dose of L-DOPA; earlier report, reference number not given; cited from earlier work
SNAP-D2SR F50^1.48A [4] = biological target: T3, SNAP-D2SR F50^1.48A (Homo sapiens, UniProt P14416, F50A); experiment: functional cAMP assay, BRET biosensor; assay type: cell-based; parameters: expressed in transfected cells
T3 sequence (P14416 1-414 isoform P14416-2 F50A): as the sequence (P14416 1-414 isoform P14416-2 L76A) above, with F50A, A76L counted along it
Protocol: as §1, §2

SNAP-D2SR F50^1.48A [5] = biological target: T3, SNAP-D2SR F50^1.48A; experiment: cell membrane [3H]spiperone assay
Protocol: (§4) Flp-In-CHO cells stably expressing the wild-type or mutant DRs were grown to 90% confluence in 175 cm^2 cell culture flasks. The cells were harvested in PBS containing 2 mM EDTA and centrifuged at 300g for 3 min. The resulting pellet was resuspended in ice-cold assay buffer (20 mM HEPES, 100 mM NaCl, 6 mM MgCl2, 1 mM EGTA, and 1 mM EDTA, pH 7.4), and the centrifugation step was repeated. The intact cell pellet was then resuspended in assay buffer and homogenized using a Polytron homogenizer. After centrifugation (1000g, 10 min), the pellet was discarded, and the supernatant was recentrifuged at 30,000g for 1 h at 4 °C using a Sorvall Evolution RC ultracentrifuge (Thermo Scientific). The resulting pellet was resuspended in assay buffer and stored in 250 μL aliquots at −80 °C. Membrane protein concentration was determined using a Pierce’s BCA protein assay kit (Thermo Fisher, Melbourne).
[^3H]­Spiperone binding experiments using cell membranes were conducted in a 200 μL reaction volume in assay buffer (20 mM HEPES, 100 mM NaCl, 6 mM MgCl2, 1 mM EGTA, and 1 mM EDTA, pH 7.4) containing 100 μM GppNHp and 0.1% ascorbic acid in 96-well plates. […] In all cases, nonspecific binding was determined in the presence of 10 μM haloperidol. To obtain affinity estimates of unlabeled agonists, competition binding experiments were performed at equilibrium. […] After this incubation period, bound and free radioligands were separated by fast-flow filtration through UniFilter-96 GF/B plates using a MicroBeta FilterMate harvester (Revvity) followed by three washes with ice-cold 0.9% NaCl. Filter bound radioactivity was detected as a chemiluminescence after the addition of MicroScint-20 (Revvity) in a MicroBeta plate counter (Revvity).
IC50 values obtained from the inhibition curves were converted to Ki values using the Cheng and Prusoff equation.

SNAP-D2SR I73^2.43A = SNAP-D2SR I73^2.43A (Homo sapiens, UniProt P14416, I73A); experiment: cell membrane [3H]spiperone assay
Chain of SNAP-D2SR I73^2.43A (P14416 1-414 isoform P14416-2 I73A): as the sequence (P14416 1-414 isoform P14416-2 L76A) above, with I73A, A76L counted along it
Protocol: as §4
(§5) [^3H]­Spiperone binding experiments using cell membranes were conducted in a 200 μL reaction volume in assay buffer (20 mM HEPES, 100 mM NaCl, 6 mM MgCl2, 1 mM EGTA, and 1 mM EDTA, pH 7.4) containing 100 μM GppNHp and 0.1% ascorbic acid in 96-well plates. […] In all cases, nonspecific binding was determined in the presence of 10 μM haloperidol. […] Filter bound radioactivity was detected as a chemiluminescence after the addition of MicroScint-20 (Revvity) in a MicroBeta plate counter (Revvity). […]

SNAP-D2SR T398^7.54A = SNAP-D2SR T398^7.54A (Homo sapiens, UniProt P14416, T427A); experiment: cell membrane [3H]spiperone assay
Chain of SNAP-D2SR T398^7.54A (P14416 1-414 isoform P14416-2 T398A): as the sequence (P14416 1-414 isoform P14416-2 L76A) above, with A76L, T398A counted along it
Protocol: as §4, §5

SNAP-D2SR F404^8.50A = SNAP-D2SR F404^8.50A (Homo sapiens, UniProt P14416, F433A); experiment: cell membrane [3H]spiperone assay
Chain of SNAP-D2SR F404^8.50A (P14416 1-414 isoform P14416-2 F404A): as the sequence (P14416 1-414 isoform P14416-2 L76A) above, with A76L, F404A counted along it
Protocol: as §4, §5

SNAP-D2SR L76^2.46A [6] = biological target: T1, SNAP-D2SR L76^2.46A; experiment: cell membrane [3H]spiperone assay
Protocol: as §4, §5

SNAP-D2SR D80^2.50A = SNAP-D2SR D80^2.50A (Homo sapiens, UniProt P14416, D80A); experiment: cell membrane [3H]spiperone assay
Chain of SNAP-D2SR D80^2.50A (P14416 1-414 isoform P14416-2 D80A): as the sequence (P14416 1-414 isoform P14416-2 L76A) above, with A76L, D80A counted along it
Protocol: as §4, §5

SNAP-D2SR S121^3.39A = biological target: T4, SNAP-D2SR S121^3.39A (Homo sapiens, UniProt P14416, S121A); experiment: cell membrane [3H]spiperone assay
T4 sequence (P14416 1-414 isoform P14416-2 S121A): T2 sequence (P14416 1-414 isoform P14416-2 I128A) with S121A, A128I
Protocol: as §4, §5

SNAP-D2SR I128^3.46A [7] = biological target: T2, SNAP-D2SR I128^3.46A; experiment: cell membrane [3H]spiperone assay
Protocol: as §4, §5

[8] = read-out: D2 PAM2 KB (converted)

Chain of D2LR (P14416 whole entry): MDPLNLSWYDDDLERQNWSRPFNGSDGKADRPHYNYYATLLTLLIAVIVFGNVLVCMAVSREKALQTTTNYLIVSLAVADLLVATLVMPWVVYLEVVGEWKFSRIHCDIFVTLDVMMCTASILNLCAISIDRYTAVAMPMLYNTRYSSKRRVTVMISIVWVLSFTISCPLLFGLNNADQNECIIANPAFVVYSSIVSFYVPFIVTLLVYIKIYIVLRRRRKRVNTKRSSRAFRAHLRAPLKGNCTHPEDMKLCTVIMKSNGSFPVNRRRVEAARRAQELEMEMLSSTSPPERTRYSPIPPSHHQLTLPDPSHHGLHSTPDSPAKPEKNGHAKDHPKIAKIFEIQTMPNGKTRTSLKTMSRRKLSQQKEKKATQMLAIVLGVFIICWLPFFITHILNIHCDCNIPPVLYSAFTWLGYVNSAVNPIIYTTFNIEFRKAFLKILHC

pKB (D2LR): 5.18 ± 0.12 | LogτB (D2LR; intrinsic efficacy): -1.30 ± 0.16 | Logαβ (D2LR; with dopamine): 1.52 ± 0.12 | D2 PAM2 log τ (SNAP-D2SR L76^2.46A [1]): –3 | D2 PAM2 pKB (SNAP-D2SR L76^2.46A [1]): 5.52 ± 0.31 | fold decrease in cooperativity between D2 PAM2 and DA (SNAP-D2SR L76^2.46A [1]): 5 fold | Kb (SNAP-D2SR L76^2.46A [1]; [8]): 3 µM | D2 PAM2 log αβ (SNAP-D2SR L76^2.46A [1]; with DA): 0.56 ± 0.09 | D2 PAM2 αβ (SNAP-D2SR L76^2.46A [1]; with DA): 3.6 | D2 PAM2 log τ (SNAP-D2SR I128^3.46A [2]): –3 | D2 PAM2 pKB (SNAP-D2SR I128^3.46A [2]): 4.90 ± 0.18 | Kb (SNAP-D2SR I128^3.46A [2]; [8]): 13 µM | D2 PAM2 log αβ (SNAP-D2SR I128^3.46A [2]; with DA): 1.63 ± 0.17 | D2 PAM2 αβ (SNAP-D2SR I128^3.46A [2]; with DA): 43 | Kb (SNAP-D2SR V91^2.61A): 2.6 µM | Logτ (SNAP-D2SR V91^2.61A): -0.23 ± 0.08 | pKB (SNAP-D2SR V91^2.61A): 5.59 ± 0.21 | τ (SNAP-D2SR V91^2.61A): 0.59 | Logαβ (SNAP-D2SR V91^2.61A; with DA): 0.93 ± 0.18 | αβ (SNAP-D2SR V91^2.61A; with DA): 8.5 | Kb (SNAP-D2SR W384^7.40A): 13.8 µM | Logτ (SNAP-D2SR W384^7.40A): -0.24 ± 0.08 | pKB (SNAP-D2SR W384^7.40A): 4.86 ± 0.24 | τ (SNAP-D2SR W384^7.40A): 0.57 | Logαβ (SNAP-D2SR W384^7.40A; with DA): 1.04 ± 0.15 | αβ (SNAP-D2SR W384^7.40A; with DA): 11.0 | D2 PAM2 log τ (SNAP-D2SR F50^1.48A [4]): –1.35 ± 0.22 | D2 PAM2 pKB (SNAP-D2SR F50^1.48A [4]): 5.32 ± 0.28 | D2 PAM2 τ (SNAP-D2SR F50^1.48A [4]): 0.04 | fold decrease in cooperativity with DA (SNAP-D2SR F50^1.48A [4]; cAMP): 7 fold | Kb (SNAP-D2SR F50^1.48A [4]; [8]): 5 µM | D2 PAM2 log αβ (SNAP-D2SR F50^1.48A [4]; with DA): 0.39 ± 0.07 | D2 PAM2 αβ (SNAP-D2SR F50^1.48A [4]; with DA): 2.5 | pKB (SNAP-D2SR F50^1.48A [5]; [3H]spiperone competition binding interaction experiment): 5.57 ± 0.25 | fold decrease in cooperativity with DA vs WT (SNAP-D2SR F50^1.48A [5]; binding): 5 fold | Kb (SNAP-D2SR F50^1.48A [5]; binding interaction experiment): 3 µM | log α (SNAP-D2SR F50^1.48A [5]; cooperativity with DA, binding): 0.33 ± 0.03 | α (SNAP-D2SR F50^1.48A [5]; cooperativity with DA, binding): 2.1 | fold shift + 10 μM PAM (SNAP-D2SR F50^1.48A [5]; shift of DA IC50): 1.7 fold | ΔpIC50 + 10 μM PAM (SNAP-D2SR F50^1.48A [5]; shift of DA pIC50): 0.22 ± 0.12 | fold shift + 10 μM PAM (SNAP-D2SR I73^2.43A; shift of DA IC50): 1.5 fold | ΔpIC50 + 10 μM PAM (SNAP-D2SR I73^2.43A; shift of DA pIC50): 0.17 ± 0.09 | fold shift + 10 μM PAM (SNAP-D2SR T398^7.54A; shift of DA IC50): 1 fold | ΔpIC50 + 10 μM PAM (SNAP-D2SR T398^7.54A; shift of DA pIC50): –0.01 ± 0.05 | fold shift + 10 μM PAM (SNAP-D2SR F404^8.50A; shift of DA IC50): 1.5 fold | ΔpIC50 + 10 μM PAM (SNAP-D2SR F404^8.50A; shift of DA pIC50): 0.19 ± 0.18 | fold shift + 10 μM PAM (SNAP-D2SR L76^2.46A [6]; shift of DA IC50): 3.5 fold | ΔpIC50 + 10 μM PAM (SNAP-D2SR L76^2.46A [6]; shift of DA pIC50): 0.55 ± 0.07 | fold shift + 10 μM PAM (SNAP-D2SR D80^2.50A; shift of DA IC50): 0.9 fold | ΔpIC50 + 10 μM PAM (SNAP-D2SR D80^2.50A; shift of DA pIC50): –0.04 ± 0.27 | fold shift + 10 μM PAM (SNAP-D2SR S121^3.39A; shift of DA IC50): 2.6 fold | ΔpIC50 + 10 μM PAM (SNAP-D2SR S121^3.39A; shift of DA pIC50): 0.41 ± 0.18 | fold shift + 10 μM PAM (SNAP-D2SR I128^3.46A [7]; shift of DA IC50): 1.1 fold | ΔpIC50 + 10 μM PAM (SNAP-D2SR I128^3.46A [7]; shift of DA pIC50): 0.06 ± 0.13
SMILES: COc1cc(CO)c(F)cc1C(=O)n1ccc2c(F)cccc21 [D2 PAM2, [5-fluoro-4-(hydroxymethyl)-2-methoxyphenyl]-(4-fluoro-1H-indol-1-yl)methanone]
effect on L-DOPA in a rodent model of Parkinson's disease [3]: potentiate a subeffective dose of L-DOPA

— PMC12186844 (ACS Chemical Neuroscience, 2025)
